Data as given in article PMC5767893 (ACS Medicinal Chemistry Letters, 2017).

Assays:
p300 HAT domain = target: T1, p300 HAT domain (Homo sapiens, UniProt Q09472); details: for LE (ligand efficiency): LE = −1.4 log Ki/# heavy atoms
T1 sequence (Q09472 1287-1663 limits assumed): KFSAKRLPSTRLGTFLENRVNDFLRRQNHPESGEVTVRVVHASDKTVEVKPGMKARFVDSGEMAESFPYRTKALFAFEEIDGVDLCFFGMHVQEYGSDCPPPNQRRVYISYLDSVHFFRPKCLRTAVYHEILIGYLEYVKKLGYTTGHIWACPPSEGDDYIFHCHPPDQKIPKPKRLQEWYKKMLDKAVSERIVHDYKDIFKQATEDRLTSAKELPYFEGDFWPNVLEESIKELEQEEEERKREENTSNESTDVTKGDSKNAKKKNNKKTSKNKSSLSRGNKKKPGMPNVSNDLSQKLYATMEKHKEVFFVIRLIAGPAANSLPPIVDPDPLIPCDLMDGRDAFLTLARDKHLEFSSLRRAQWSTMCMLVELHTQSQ

[1] = mouse
[2] = Mouse microsomal stability; type: in vitro ADME; details: microsomes
in vivo = details: mouse, plasma, po, 1 mg/kg
[3] = Nonspecific microsomal binding; type: in vitro ADME; details: human, microsomes
Plasma protein binding = type: in vitro ADME; details: mouse

Compound | LE (ligand efficiency) (p300 HAT domain) | CLint scaled [2] | mouse microsomal stability CL scaled [2] | also measured
CC(C1CC1)N(Cc1ccccc1)C(=O)CN1C(=O)NC(Cc2c[nH]c3ccccc23)C1=O (stereo not drawn) [Compound 1] | 0.23 | – | – | LipE (lipid efficiency) (p300 HAT domain; LipE = −log Ki – clogP): 3
Cc1ccccc1C1NC(=O)N(CC(=O)N(Cc2ccccc2)[C@@H](C)C2CC2)C1=O (stereo partly drawn) [Compound 3b] | 0.27 | – | – | –
CNC(=O)Nc1ccc2c(c1)CC[C@]21NC(=O)N(CC(=O)N(Cc2ccccc2)[C@@H](C)C2CC2)C1=O [Compound 20] | – | – | – | oral AUC ([1]; 10 mg/kg oral dose): no exposure
CNC(=O)Nc1ccc2c(c1)CC[C@@]21OC(=O)N(CC(=O)N(Cc2ccccc2)[C@@H](C)C2CC2)C1=O [Compound 22] | – | 188 L/h/kg | 107 L/h/kg | –
CNC(=O)Nc1ccc2c(c1)CC[C@@]21OC(=O)N(CC(=O)N(Cc2ccc(F)cc2)[C@H](C2CC2)C(F)(F)F)C1=O [Compound 23] | – | 181 L/h/kg | 41 L/h/kg | AUC (in vivo): 1100 ng·h/mL; F % oral [1]: 45%; fraction unbound [3]: 0.22; fraction unbound (Plasma protein binding): 0.002
